Experimental data from ChEMBL document CHEMBL1125246, “Configuration and preferential solid-state conformations of perindoprilat (S-9780). Comparison with the crystal structures of other ACE inhibitors and conclusions related to structure-activity relationships” (J Med Chem, 1991).

Target: T1, Angiotensin-converting enzyme (Oryctolagus cuniculus, UniProt P12822)
T1 sequence (P12822 whole entry): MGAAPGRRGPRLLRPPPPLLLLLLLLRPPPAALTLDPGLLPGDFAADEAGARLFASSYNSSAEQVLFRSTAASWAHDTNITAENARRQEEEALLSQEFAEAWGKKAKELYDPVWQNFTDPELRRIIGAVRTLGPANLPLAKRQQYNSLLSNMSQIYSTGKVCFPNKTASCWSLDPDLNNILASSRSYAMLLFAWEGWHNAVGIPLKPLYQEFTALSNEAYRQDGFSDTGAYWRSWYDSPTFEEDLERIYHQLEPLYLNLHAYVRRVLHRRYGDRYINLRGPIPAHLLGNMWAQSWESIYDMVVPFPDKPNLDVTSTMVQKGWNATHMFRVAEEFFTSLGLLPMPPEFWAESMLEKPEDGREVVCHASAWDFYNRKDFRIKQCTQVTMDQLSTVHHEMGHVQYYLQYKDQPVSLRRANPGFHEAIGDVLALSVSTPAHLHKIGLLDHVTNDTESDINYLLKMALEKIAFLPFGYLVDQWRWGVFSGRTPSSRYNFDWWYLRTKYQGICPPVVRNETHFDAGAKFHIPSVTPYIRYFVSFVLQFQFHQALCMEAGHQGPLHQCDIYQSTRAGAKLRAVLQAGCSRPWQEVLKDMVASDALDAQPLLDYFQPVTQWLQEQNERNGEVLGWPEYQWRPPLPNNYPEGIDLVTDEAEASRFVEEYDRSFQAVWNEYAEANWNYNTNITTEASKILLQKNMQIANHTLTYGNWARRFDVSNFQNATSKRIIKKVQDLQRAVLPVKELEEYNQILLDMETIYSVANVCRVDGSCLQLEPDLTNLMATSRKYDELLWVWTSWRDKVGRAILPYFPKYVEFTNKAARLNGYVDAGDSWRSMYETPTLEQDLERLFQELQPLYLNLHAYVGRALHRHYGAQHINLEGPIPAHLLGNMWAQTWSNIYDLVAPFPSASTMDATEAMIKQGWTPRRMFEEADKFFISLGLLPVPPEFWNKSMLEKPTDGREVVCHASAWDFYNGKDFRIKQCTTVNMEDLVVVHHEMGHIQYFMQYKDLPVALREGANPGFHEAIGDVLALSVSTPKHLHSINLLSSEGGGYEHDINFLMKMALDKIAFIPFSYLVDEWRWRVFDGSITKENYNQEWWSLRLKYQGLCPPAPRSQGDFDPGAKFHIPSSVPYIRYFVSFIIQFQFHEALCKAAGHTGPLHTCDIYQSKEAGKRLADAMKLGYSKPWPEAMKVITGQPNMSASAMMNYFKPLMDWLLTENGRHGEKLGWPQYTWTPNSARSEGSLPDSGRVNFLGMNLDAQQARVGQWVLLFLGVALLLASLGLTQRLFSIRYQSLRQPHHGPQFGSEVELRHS
Experiment: In vitro activity against angiotensin I converting enzyme especially against Hip-His-Leu residues

Structure (SMILES) | IC50 [nM]
CCCC(N[C@@H](C)C(=O)N1C(C(=O)O)CC2CCCCC21)C(=O)O (stereo not given in full) | 1.5
CCCC(N[C@H](C)C(=O)N1C(C(=O)O)CC2CCCCC21)C(=O)O (stereo not given in full) | 1100

Second part, the molecule after the results:

IC50 [nM] | Structure (SMILES)
230 | O=C(O)[C@H](CCc1ccccc1)NCC(=O)N1CCC[C@H]1C(=O)O
1.9 | CCC[C@H](NCC(=O)N1C2CCCCC2C[C@H]1C(=O)O)C(=O)O (stereo not given in full)
200 | O=C(O)C1CCCN1C(=O)CCS (stereo not given)
